Measurements taken from article doi:10.1101/2021.01.09.426030v4 (biorxiv, 2022).

Legend:
Assay in all cases: cells
Parameters in all cases: species or system GBM PDCLs
Conditions in all cases: 72 h, read-out: Erlotinib (IC50 µM)
[1] = test system: BT112
[2] = test system: BT179
[3] = test system: BT333

- IC50 [1]: 18.5 µM
- IC50 [2]: 11.7 µM
- IC50 [3]: > 20 µM
Compound: C#Cc1cccc(Nc2ncnc3cc(OCCOC)c(OCCOC)cc23)c1 [erlotinib]
